The text below walks through data of the supplement of paper PMC10307832.

Experiment in all cases: relative viability (nuclei count vs DMSO), 5 days (fraction); higher = more cells survive
Compound in the experiment “VX-11e + Luminespib”: CC1=CN=C(N=C1C2=CNC(=C2)C(=O)N[C@H](CO)C3=CC(=CC=C3)Cl)NC4=C(C=C(C=C4)F)Cl [VX-11e] + CCNC(=O)c1noc(-c2cc(C(C)C)c(O)cc2O)c1-c1ccc(CN2CCOCC2)cc1 [Luminespib] (partner 0.01 µM)
A digest of the protocol:
(§1)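 Lung cancer cell lines in 1536-well plates got either a single drug or a fixed anchor-drug dose together with five library-drug doses (not always all listed) in √10 steps, by pin tool, on the day after seeding. Nuclei were counted after 5 days, and relative viability is the treated-to-vehicle ratio of nuclei counts. Values are medians of duplicate plates.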

Compound in the experiment “VX-11e + Lapatinib”: CC1=CN=C(N=C1C2=CNC(=C2)C(=O)N[C@H](CO)C3=CC(=CC=C3)Cl)NC4=C(C=C(C=C4)F)Cl [VX-11e] + CS(=O)(=O)CCNCc1ccc(-c2ccc3ncnc(Nc4ccc(OCc5cccc(F)c5)c(Cl)c4)c3c2)o1 [Lapatinib] (partner 2 µM)
The method, boiled down: as §1

Compound in the experiment “VX-11e + Decitabine”: CC1=CN=C(N=C1C2=CNC(=C2)C(=O)N[C@H](CO)C3=CC(=CC=C3)Cl)NC4=C(C=C(C=C4)F)Cl [VX-11e] + Nc1ncn([C@H]2C[C@H](O)[C@@H](CO)O2)c(=O)n1 [Decitabine] (partner 2 µM)
The method, boiled down:
as §1

Compound in the experiment “VX-11e + Olaparib”: CC1=CN=C(N=C1C2=CNC(=C2)C(=O)N[C@H](CO)C3=CC(=CC=C3)Cl)NC4=C(C=C(C=C4)F)Cl [VX-11e] + O=C(c1cc(Cc2n[nH]c(=O)c3ccccc23)ccc1F)N1CCN(C(=O)C2CC2)CC1 [Olaparib] (partner 8 µM)
A digest of the protocol:
as §1

In the case of NCI-H1975, the relative viability in the experiment with VX-11e + Luminespib (first compound 0.04 µM) came to 0.232; with VX-11e + Luminespib (first compound 0.1265 µM) it was 0.199; with VX-11e + Luminespib (first compound 0.4 µM) it was 0.156; with VX-11e + Luminespib (first compound 1.265 µM) it was 0.283; with VX-11e + Luminespib (first compound 4 µM) it was 0.186; with VX-11e + Lapatinib (first compound 0.04 µM), 0.925. Besides, the relative viability is 0.862 in the experiment with VX-11e + Lapatinib (first compound 0.1265 µM); 0.665 with VX-11e + Lapatinib (first compound 0.4 µM); 0.811 with VX-11e + Lapatinib (first compound 1.265 µM); 0.342 with VX-11e + Lapatinib (first compound 4 µM); 0.42 with VX-11e + Decitabine (first compound 0.04 µM); 0.388 in the experiment with VX-11e + Decitabine (first compound 0.1265 µM). Besides, the relative viability worked out at 0.336 in the experiment with VX-11e + Decitabine (first compound 0.4 µM); 0.364 with VX-11e + Decitabine (first compound 1.265 µM); 0.226 with VX-11e + Decitabine (first compound 4 µM); 0.84 with VX-11e + Olaparib (first compound 0.04 µM); 0.808 with VX-11e + Olaparib (first compound 0.1265 µM); 0.806 with VX-11e + Olaparib (first compound 0.4 µM). The relative viability turned out to be 0.803 with VX-11e + Olaparib (first compound 1.265 µM) and 0.31 with VX-11e + Olaparib (first compound 4 µM).
As for NCI-H1993, the relative viability with VX-11e + Luminespib (first compound 0.04 µM) was determined as 1.12; in the experiment with VX-11e + Luminespib (first compound 0.1265 µM), 0.918; with VX-11e + Luminespib (first compound 0.4 µM) it was 0.484; with VX-11e + Luminespib (first compound 1.265 µM), 1.02; with VX-11e + Luminespib (first compound 4 µM), 0.663; with VX-11e + Lapatinib (first compound 0.1265 µM), 0.818. The relative viability with VX-11e + Lapatinib (first compound 1.265 µM) was 0.73; with VX-11e + Lapatinib (first compound 4 µM), 0.727; with VX-11e + Decitabine (first compound 0.1265 µM), 0.644; in the experiment with VX-11e + Decitabine (first compound 0.4 µM) it was 0.674; in the experiment with VX-11e + Decitabine (first compound 1.265 µM), 0.659; with VX-11e + Decitabine (first compound 4 µM), 0.509. For the same cell line, the relative viability came to 1.13 with VX-11e + Olaparib (first compound 0.1265 µM), 0.895 in the experiment with VX-11e + Olaparib (first compound 0.4 µM), 0.879 with VX-11e + Olaparib (first compound 1.265 µM) and 0.785 with VX-11e + Olaparib (first compound 4 µM).
For the cell line LU99A, the relative viability with VX-11e + Luminespib (first compound 0.04 µM) is 0.3; in the experiment with VX-11e + Luminespib (first compound 0.1265 µM) it was 0.249; in the experiment with VX-11e + Luminespib (first compound 0.4 µM), 0.209; with VX-11e + Luminespib (first compound 1.265 µM), 0.336; with VX-11e + Luminespib (first compound 4 µM), 0.172; with VX-11e + Lapatinib (first compound 0.04 µM), 1.03. The relative viability turned out to be 0.913 in the experiment with VX-11e + Lapatinib (first compound 0.1265 µM); 0.864 with VX-11e + Lapatinib (first compound 0.4 µM); 0.253 with VX-11e + Lapatinib (first compound 1.265 µM); 0.235 in the experiment with VX-11e + Lapatinib (first compound 4 µM); 0.872 with VX-11e + Decitabine (first compound 0.04 µM); 0.81 with VX-11e + Decitabine (first compound 0.1265 µM). Besides, the relative viability with VX-11e + Decitabine (first compound 0.4 µM) came out at 0.822; with VX-11e + Decitabine (first compound 1.265 µM) it was 0.727; with VX-11e + Decitabine (first compound 4 µM) it was 0.347; in the experiment with VX-11e + Olaparib (first compound 0.04 µM), 0.248; in the experiment with VX-11e + Olaparib (first compound 0.1265 µM), 0.247; with VX-11e + Olaparib (first compound 0.4 µM), 0.298. Also, the relative viability with VX-11e + Olaparib (first compound 1.265 µM) amounted to 0.226; with VX-11e + Olaparib (first compound 4 µM), 0.221.
Regarding NCI-H322M, the relative viability amounted to 0.846 with VX-11e + Luminespib (first compound 0.04 µM); 0.687 in the experiment with VX-11e + Luminespib (first compound 0.1265 µM); 0.303 in the experiment with VX-11e + Luminespib (first compound 0.4 µM); 0.658 in the experiment with VX-11e + Luminespib (first compound 1.265 µM); 0.606 with VX-11e + Luminespib (first compound 4 µM); 0.581 with VX-11e + Lapatinib (first compound 0.04 µM). Also, the relative viability with VX-11e + Lapatinib (first compound 0.4 µM) was determined as 0.674; with VX-11e + Lapatinib (first compound 1.265 µM) it was 0.436; in the experiment with VX-11e + Lapatinib (first compound 4 µM), 0.456; with VX-11e + Decitabine (first compound 0.04 µM), 0.737; with VX-11e + Decitabine (first compound 0.1265 µM), 0.723; with VX-11e + Decitabine (first compound 0.4 µM) it was 0.683. In addition, the relative viability in the experiment with VX-11e + Decitabine (first compound 1.265 µM) was 0.607; with VX-11e + Decitabine (first compound 4 µM) it was 0.614; with VX-11e + Olaparib (first compound 0.04 µM), 0.705; with VX-11e + Olaparib (first compound 0.1265 µM), 0.71; in the experiment with VX-11e + Olaparib (first compound 0.4 µM), 0.525; in the experiment with VX-11e + Olaparib (first compound 1.265 µM), 0.752. Besides, the relative viability in the experiment with VX-11e + Olaparib (first compound 4 µM) came out at 0.54.
For NCI-H2347, the relative viability with VX-11e + Luminespib (first compound 0.04 µM) came to 0.293; with VX-11e + Luminespib (first compound 0.1265 µM), 0.548; in the experiment with VX-11e + Luminespib (first compound 0.4 µM), 0.323; in the experiment with VX-11e + Luminespib (first compound 1.265 µM), 0.269; with VX-11e + Luminespib (first compound 4 µM), 0.366; in the experiment with VX-11e + Lapatinib (first compound 0.04 µM) it was 1.05. Besides, the relative viability was found to be 0.878 with VX-11e + Lapatinib (first compound 0.1265 µM); 0.809 with VX-11e + Lapatinib (first compound 0.4 µM); 0.809 with VX-11e + Lapatinib (first compound 1.265 µM); 0.453 with VX-11e + Lapatinib (first compound 4 µM); 0.604 with VX-11e + Decitabine (first compound 0.04 µM); 0.554 with VX-11e + Decitabine (first compound 0.1265 µM). Also, the relative viability with VX-11e + Decitabine (first compound 0.4 µM) is 0.504; in the experiment with VX-11e + Decitabine (first compound 1.265 µM) it was 0.534; with VX-11e + Decitabine (first compound 4 µM) it was 0.661; with VX-11e + Olaparib (first compound 0.04 µM), 0.585; with VX-11e + Olaparib (first compound 0.1265 µM), 0.6; with VX-11e + Olaparib (first compound 0.4 µM), 0.636. The relative viability is 0.518 with VX-11e + Olaparib (first compound 1.265 µM) and 0.36 in the experiment with VX-11e + Olaparib (first compound 4 µM).
As for HOP-62, the relative viability with VX-11e + Luminespib (first compound 0.04 µM) is 1.01; with VX-11e + Luminespib (first compound 0.1265 µM) it was 0.843; with VX-11e + Luminespib (first compound 0.4 µM), 0.946; with VX-11e + Luminespib (first compound 1.265 µM), 0.687; with VX-11e + Luminespib (first compound 4 µM) it was 0.406; with VX-11e + Lapatinib (first compound 0.04 µM), 1.14. Further, the relative viability in the experiment with VX-11e + Lapatinib (first compound 0.1265 µM) is 0.979; with VX-11e + Lapatinib (first compound 0.4 µM), 0.776; with VX-11e + Lapatinib (first compound 1.265 µM), 0.27; with VX-11e + Lapatinib (first compound 4 µM), 0.526; with VX-11e + Decitabine (first compound 0.04 µM), 0.223; with VX-11e + Decitabine (first compound 0.1265 µM), 0.239. Also, the relative viability with VX-11e + Decitabine (first compound 0.4 µM) was 0.213; with VX-11e + Decitabine (first compound 1.265 µM), 0.248; with VX-11e + Decitabine (first compound 4 µM) it was 0.312; in the experiment with VX-11e + Olaparib (first compound 0.04 µM) it was 0.668; with VX-11e + Olaparib (first compound 0.1265 µM), 0.248; with VX-11e + Olaparib (first compound 0.4 µM) it was 0.174. For the same cell line, the values for the relative viability with VX-11e + Olaparib (first compound 1.265 µM) and in the experiment with VX-11e + Olaparib (first compound 4 µM) were 0.304 and 0.24, respectively.
With NCI-H460, the relative viability is 0.0317 with VX-11e + Luminespib (first compound 0.04 µM); 0.0379 with VX-11e + Luminespib (first compound 0.1265 µM); 0.0305 in the experiment with VX-11e + Luminespib (first compound 0.4 µM); 0.0413 in the experiment with VX-11e + Luminespib (first compound 1.265 µM); 0.0238 with VX-11e + Luminespib (first compound 4 µM); 1.13 in the experiment with VX-11e + Lapatinib (first compound 0.04 µM). Besides, the relative viability in the experiment with VX-11e + Lapatinib (first compound 0.1265 µM) is 0.85; with VX-11e + Lapatinib (first compound 0.4 µM), 0.823; with VX-11e + Lapatinib (first compound 1.265 µM) it was 0.542; in the experiment with VX-11e + Lapatinib (first compound 4 µM) it was 0.0703; in the experiment with VX-11e + Decitabine (first compound 0.04 µM), 0.568; with VX-11e + Decitabine (first compound 0.1265 µM) it was 0.43. Besides, the relative viability with VX-11e + Decitabine (first compound 0.4 µM) amounted to 0.165; with VX-11e + Decitabine (first compound 1.265 µM), 0.472; with VX-11e + Decitabine (first compound 4 µM) it was 0.184; with VX-11e + Olaparib (first compound 0.04 µM), 0.427; with VX-11e + Olaparib (first compound 0.1265 µM), 0.429; in the experiment with VX-11e + Olaparib (first compound 1.265 µM) it was 0.315. In the experiment with VX-11e + Olaparib (first compound 4 µM), the relative viability came to 0.236.
